Reference: a melting point compilation (Tetko et al.; mined from patent text by program, amines drawn as free bases though some values may be those of a salt)

With `Cn1ncc2c1-c1cc(Cl)ccc1OC2` the melting point was 80.5 to 81 °C. In the case of `O=C(O)c1cc(Cl)cc2c1O[C@@H]1C=CCC[C@H]21` (relative stereo), the melting point is reported as 147 to 150 °C. For `CC1(C)COc2ccc(C[C@@H](NC(=O)c3ccc(F)c4ccccc34)[C@@H](O)c3cccc(Cl)c3)cc21` (racemic), the melting point was 131 to 133 °C. Molecule `CCOC(=O)c1c(C)cc2nc(COC(N)=O)n(-c3ccccc3C(F)(F)F)c(=O)c2c1C` has a melting point of 158 to 159 °C. Molecule `CCC(=O)c1ncc(Nc2cc(C)[nH]n2)nc1Nc1ccc(F)cc1` has a melting point of 208 to 210 °C. For `CCC(O)CN1CCN(C2Cc3ccc(F)cc3Sc3ccc(N)cc32)CC1` (stereo not drawn), the melting point was 184 to 186 °C. `C#Cc1cnn2c(C(F)(F)F)cc(-c3ccc(Cl)c(C)c3)nc12` gave a melting point of 166 °C. Work on `CNC(=O)N1CCSC1c1ccccc1OCCN1CCN(c2ccccc2)CC1` (stereo not drawn) yielded a melting point of 133 to 135 °C. Work on `CCc1nnc2cc(N3CCN(C)CC3)nc(CC)n12` yielded a melting point of 128 to 131 °C. Molecule `CCCCN(CCCC)C(=S)Nc1ccc(NNC=O)cc1` has a melting point of 139 to 141 °C. Work on `CCC1N=C(c2ccccc2Cl)c2cc(CCC(=O)OC)sc2NC1=S` (stereo not drawn) yielded a melting point of 173 to 176 °C. `C=Cn1cc(C(=O)O)c(=O)c2cc(F)c(N3CCN(C)C(C)C3)c(F)c21` (stereo not drawn) showed a melting point of 178 to 179 °C. `O=CN1CCN(c2nc(N3CCSCC3)c3ncnc(NCc4ccccc4)c3n2)CC1` showed a melting point of 94 to 96 °C. With `CC(=Cc1ccc([N+](=O)[O-])cc1)C(=O)Oc1ccc(Cl)cc1` the melting point was 111 to 112 °C. Work on `CN(C)C=Nc1ncc2cc(-c3c(Cl)cccc3Cl)c(N=CN(C)C)nc2n1` yielded a melting point of 269 to 272 °C. For `CCCCCCCCOC(C)c1ccc(-c2ccc(C(=O)O)cc2)cc1` (single isomer, unassigned; (+)), the melting point was 139 to 140 °C. For `CCOc1ccc2c(c1)n(C1CCCCC1)c(=O)n2S(=O)(=O)c1ccc(C(=O)NC23CC4CC(CC(C4)C2)C3)cc1OC`, the melting point was 228 °C. For `CC(C)C(=O)NC[C@@H]1CN2C(=O)C[C@H]2O1` (racemic), the melting point was 76 to 77 °C. In the case of `NCC1Cc2cc(C(F)(F)F)cc(-c3ccc(Cl)cc3)c2O1` (stereo not drawn), the melting point is reported as > 250 °C. In the case of `COc1ccc2c(c1)c1c(n2Cc2ccccc2)CCCC1C(N)=O` (stereo not drawn), the melting point is reported as 154 to 156 °C. In the case of `NC(=O)N1CCCC1COc1cncc(Cl)c1` (stereo not drawn), the melting point is reported as 95 °C. Molecule `Cn1c(=Nc2cccnc2)sc2ncccc2c1=O` has a melting point of 160 °C. In the case of `CON(C)C(=O)[C@@H](CO)NC(=O)OC(C)(C)C`, the melting point is reported as 115 to 116 °C. `CCOC(=O)CN1C(=O)C(NC(=O)Cc2ccc(Cl)cc2)N=C(c2ccccc2)c2ccccc21` (stereo not drawn) showed a melting point of 205 to 207 °C. `Cc1cc(-n2ccnc2)c2cccc(OCc3c(Cl)ccc(S(=O)(=O)N4CCC[C@H]4C(=O)NCC4CCN(CCOCCO)CC4)c3Cl)c2n1` showed a melting point of 96 °C. `CCN(CC)C(=O)COC(=O)c1ccc(N)cc1` showed a melting point of 135 to 136 °C. In the case of `CCC(=O)c1ccc(OC)c(OC(C)C)c1`, the melting point is reported as 58.1 to 58.7 °C. In the case of `O=C1C(c2ccccc2)=C(c2ccccc2)C(=O)N1c1ccccc1`, the melting point is reported as 173 to 174 °C. For `COc1cc(C)c2c(c1C)CC(=O)N2`, the melting point was 262 to 263 °C. Work on `Cc1[nH]cc2c(=O)n(-c3ccc(F)cc3)nc-2c1-c1ccccc1` yielded a melting point of 303 to 317 °C. Work on `Cc1cc(SC2=C(O)CC(CCc3cccc(O)c3)(CCc3cccc(O)c3)OC2=O)c(C(C)(C)C)cc1CO` yielded a melting point of 92 to 94 °C. In the case of `Cn1cc(C2=C(c3cn(CCCNC(N)=NC#N)c4ccccc34)C(=O)NC2=O)c2ccccc21`, the melting point is reported as 168 to 170 °C. Molecule `CCOC(=O)c1cccc(Nc2nccc(-c3ccnc(Cl)c3)n2)c1` has a melting point of 149 to 150 °C. `CC(C)C(C(=O)O)c1cc(Cl)c(O)c(Cl)c1` (stereo not drawn) showed a melting point of 152 to 154 °C. For `CCCCCCOc1ccccc1C(=NCCC(C)(C)C)NC#N`, the melting point was 89 to 90 °C. Work on `O=C1c2ccccc2C(=O)N1C1CCCn2c1nc(-c1ccncc1)cc2=O` (racemic) yielded a melting point of 211 to 213 °C. `CCC[C@H]1CC[C@H](CCCOc2ccc(C(=O)O[C@H](c3ccccc3)[C@H](OC(=O)c3ccc(OCCC[C@H]4CC[C@H](CCC)CC4)cc3)c3ccccc3)cc2)CC1` showed a melting point of 75 °C. In the case of `CCCCn1c(=O)n(CCC)c(=O)c2c3n(nc21)CCCN3`, the melting point is reported as 147 to 150 °C. In the case of `COC(=O)c1cc(OCc2ccc(OCc3nc(-c4ccco4)oc3C)c(OC)c2)nn1-c1ccccc1`, the melting point is reported as 146 to 147 °C. Work on `NC(=O)CNc1ncccc1NC(=O)c1cccc(Cl)c1` yielded a melting point of 210 to 211 °C. With `CCc1nc2c(cnn2CC)c(NC2CCOCC2)c1CNC(=O)c1cccc(C(=O)NCc2ccc(Cl)c(-c3cccc(CN4CCCNCC4)c3)c2)c1` the melting point was 116 to 119 °C. In the case of `CCc1c(Cc2[nH]c(C(=O)OCc3ccccc3)c(C)c2CCCO)[nH]c(Cc2[nH]c(C(=O)OCc3ccccc3)c(C)c2CCCO)c1CC`, the melting point is reported as 172 to 173 °C. Molecule `CNC(=O)CCc1c(-c2ccccc2)n(C)c(=O)c2ccccc12` has a melting point of 185 to 186 °C. For `COc1ccc2c(-c3ccc(F)cc3F)noc2c1Cl`, the melting point was 189 to 191 °C. `COc1c(O)cc2c(c1Sc1ccccc1)CCN(C)CC2` showed a melting point of 161 to 162 °C. `CCCCCCCCCCCCNC(=S)C1(c2ccccn2)CCCS1` (stereo not drawn) showed a melting point of 60 °C. With `CCOC(=O)c1c(C(=O)OCC)c(-c2ccc(OC(C)C)c(OC(C)C)c2)c2cc3c(cc2c1O)OCO3` the melting point was 123 to 124 °C. With `COC(=O)CCCCCCCCOC1OC(CO)C(O)C(OC2OC(CO)C(O)C(O)C2O)C1NC(C)=O` (stereo not drawn) the melting point was 208 to 210 °C.
